Experimental data from US8497263B2, “Pyrrolinone derivative and pharmaceutical composition comprising the same” (Shionogi & Co., Ltd., priority 2007, dated 2013).
pIC50: −log10 of the molar value.

Legend:
human P2X3 receptor = target: T1, human P2X3 receptor (Homo sapiens, UniProt P56373); experiment: Inhibition of ATP-induced calcium fluorescence (Fluo-3, FDSS 3000) in C6BU-1 cells stably expressing human P2X3 receptor; type: cell-based; settings: C6BU-1 cell transfected with human P2X3 receptor gene; 40 nM ATP solution; Fluo-3 fluorescence intensity
T1 construct: expressed in transfected cells
T1 sequence (P56373 1-397): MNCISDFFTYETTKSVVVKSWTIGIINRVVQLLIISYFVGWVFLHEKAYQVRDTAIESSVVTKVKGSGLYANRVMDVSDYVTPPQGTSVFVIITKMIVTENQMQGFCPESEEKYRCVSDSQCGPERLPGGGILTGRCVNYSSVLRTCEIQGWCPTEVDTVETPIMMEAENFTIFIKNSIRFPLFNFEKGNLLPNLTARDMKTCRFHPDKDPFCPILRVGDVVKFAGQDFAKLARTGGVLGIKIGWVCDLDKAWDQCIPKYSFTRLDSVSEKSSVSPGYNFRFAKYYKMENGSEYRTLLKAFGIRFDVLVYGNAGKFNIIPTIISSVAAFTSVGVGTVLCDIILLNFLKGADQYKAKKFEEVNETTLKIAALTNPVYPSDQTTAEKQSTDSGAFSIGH
Protocol: Stably expressing cell line (C6BU-1 cell transfected with human P2X3 receptor gene (GenBank accession number Y07683)) was used. The cells were seeded in a 96-well microtiter plate at a concentration of 8000 cells/well and cultured in the medium (8.3% fetal bovine serum, 8.3% horse serum, 1% antibiotic and antifungal in DMEM) for one day at 37° C. under 5% carbon dioxide atmosphere. The medium was replaced with 4 μM Fluo-3-AM solution (pH7.5) containing 20 mM HEPES, 137 mM NaCl, 2.7 mM KCl, 0.9 mM MgCl2, 5.0 mM CaCl2, 5.6 mM D-glucose, 2.5 mM probenecid, 10% BSA, and 0.08% Pluronic F-127, and incubated at 37° C. under 5% dioxide carbon atmosphere for one hour. The plate was washed with washing buffer (20 mM HEPES, 137 mM NaCl, 2.7 mM KCl, 0.9 mM MgCl2, 5.0 mM CaCl2, 5.6 mM D-glucose, 2.5 mM probenecid, pH7.5), and each well was added with 40 μL of this buffer. The plate was placed in High-Throughput Screening System FDSS 3000 (Hamamatsu Photonics K.K.). Measurement of fluorescence intensity by FDSS 3000 was started, and 40 μL of DMSO solutions containing different concentrations of the test compound as prepared by dilution with dilution buffer (20 mM HEPES, 137 mM NaCl, 2.7 mM KCl, 0.9 mM MgCl2, 5.0 mM CaCl2, 5.6 mM D-glucose, 2.5 mM probenecid, 0.1% Pluronic F-127, pH7.5) were dispensed to each well through the built-in automatic dispenser. Five minutes after, 40 nM ATP solution (50 μL) prepared by dilution with the dilution buffer was dispensed through the built-in automatic dispenser, and the measurement of fluorescence intensity was continued for 3 min. For each well, the specific maximum fluorescence intensity was calculated as the ratio of the maximum fluorescence intensity after addition of the ATP solution to the fluorescence intensity at the starting of the measurement. […] FDSS software (Hamamatsu Photonics K.K.) was used for calculation of the specific maximum fluorescence intensity. IC50 was calculated using Microsoft™ Excel™ (Microsoft Corporation) and XLfit™ (ID Business Solutions Ltd.).

Compound | pIC50 (human P2X3 receptor) | melting point [°C]
CCOC(=O)c1ccc(N2C(=O)C(=O)C(C(=O)c3ccc(OC)cc3)C2c2ccccc2)cc1 (stereo not drawn) [Example I-4] | 7.70 | 
COc1ccc(C2NC(=O)c3[nH]nc(-c4ccc(C)cc4)c32)cc1OC (stereo not drawn) [Example I-124] | 4.66 | 
CCOC(=O)Cc1ccc(N2C(=O)C(O)=C(C(=O)c3ccc(OC)cc3)C2c2ccccc2)cc1 (stereo not drawn) [Example I-79] | 5.05 | 
CCCCC(=O)C1=C(O)C(=O)N(c2ccc(C(=O)OCC)cc2)C1c1ccccc1 (stereo not drawn) [Example I-49] | 5.99 | 
CCOC(=O)c1ccc(N2C(=O)C(O)=C(C(=O)c3cccs3)C2c2ccccc2)cc1 (stereo not drawn) [Example I-36] | 6.42 | 
COc1ccc(C(=O)C2=C(O)C(=O)N(c3ccc(C4=NCCO4)cc3)C2c2ccc(F)cc2)cc1 (stereo not drawn) [Example I-69] | 5.42 | 189 to 192
CCOc1ccc(C(=O)C2C(=O)C(=O)N(c3ccc(OC)cc3)C2c2ccc(Cl)cc2)cc1 (stereo not drawn) [Example I-88] | 4.81 | 
COc1ccc(C(=O)C2=C(O)C(=O)N(c3ccc(-c4nc(C)no4)cc3)C2c2ccc(F)cc2)cc1 (stereo not drawn) [Example I-25] | 6.74 | 236 to 239
COc1ccc(C(=O)C2=C(O)C(=O)N(c3ccc(OC(F)(F)F)cc3)C2c2ccc(F)cc2)cc1 (stereo not drawn) [Example I-48] | 6.01 | 241 to 244
COc1ccc(C(=O)C2=C(O)C(=O)N(CCc3ccc(F)cc3)C2c2ccccc2OC)cc1 (stereo not drawn) [Example I-273] | 5.66 | 
COc1ccc(C(=O)C2C(=O)C(=O)N(c3ccc(C(=O)OC(C)C)cc3)C2c2ccccc2)cc1 (stereo not drawn) [Example I-21] | 6.80 | 
O=C1c2[nH]nc(-c3ccc(Cl)cc3)c2C(c2ccc([N+](=O)[O-])cc2)N1c1ccccn1 (stereo not drawn) [Example I-118] | 4.75 | 
COc1ccccc1C1c2c(-c3ccc(C)cc3)n[nH]c2C(=O)N1c1ccc(F)cc1 (stereo not drawn) [Example I-95] | 6.25 | 
CCOC(=O)c1ccc(N2C(=O)C(O)=C(C(=O)c3cccn3C)C2c2ccccc2)cc1 (stereo not drawn) [Example I-57] | 5.82 | 
CCOC(=O)c1ccc(N2C(=O)C(O)=C(C(=O)c3ccc(OC)cc3)C2C(C)C)cc1 (stereo not drawn) [Example I-20] | 6.85 | 
COc1ccc(C(=O)C2=C(O)C(=O)N(c3ccc(C#N)cc3)C2c2ccccc2)cc1 (stereo not drawn) [Example I-76] | 5.19 | 

Compound | pIC50 (human P2X3 receptor) | melting point [°C]
COc1ccc(C(=O)C2=C(O)C(=O)N(c3ccc(Cl)cc3)C2c2ccc(F)cc2)cc1 (stereo not drawn) [Example I-66] | 5.46 | 
CCOC(=O)c1ccc(N2C(=O)C(O)=C(C(=O)C3CCC3)C2c2ccccc2)cc1 (stereo not drawn) [Example I-53] | 5.89 | 
COC(=O)c1ccc(C(=O)C2=C(O)C(=O)N(c3ccc(C(F)(F)F)cc3)C2c2ccccc2)cc1 (stereo not drawn) [Example I-24] | 6.74 | 
CCOC(=O)c1ccc(N2C(=O)C(=O)C(C(C)=O)C2c2ccccc2)cc1 (stereo not drawn) [Example I-72] | 5.32 | 
COc1ccccc1C1c2c(C3CCC3)n[nH]c2C(=O)N1c1ccc(F)cc1 (stereo not drawn) [Example I-260] | 5.25 | 
CC(=O)c1ccc(N2C(=O)C(=O)C(C(=O)c3ccc(Cl)cc3)C2c2ccc(Br)cc2)cc1 (stereo not drawn) [Example I-62] | 5.71 | 
CCOC(=O)c1ccc(N2C(=O)C(O)=C(C(=O)c3ccco3)C2c2ccccc2)cc1 (stereo not drawn) [Example I-77] | 5.10 | 
CCOC(=O)c1ccc(N2C(=O)C(=O)C(C(=O)c3ccc(OC)cc3)C2C2CCCCC2)cc1 (stereo not drawn) [Example I-2] | 8.00 | 252 to 255
CCOC(=O)c1csc(N2C(=O)C(O)=C(C(=O)c3ccc(OC)cc3)C2c2ccccc2)n1 (stereo not drawn) [Example I-52] | 5.90 | 
CCOC(=O)c1ccc(N2C(=O)C(=O)C(/C(=N\O)c3ccc(OC)cc3)C2c2ccccc2)cc1 (stereo not drawn) [Example I-44] | 6.25 | 
COc1ccc(-c2n[nH]c3c2C(c2ccccc2OC)N(CCc2ccc(F)cc2)C3=O)cc1 (stereo not drawn) [Example I-278] | 5.85 | 
CC(C)(C)c1n[nH]c2c1C(C1CCCCC1)N(c1ccc(-c3ccon3)cc1)C2=O (stereo not drawn) [Example I-96, 3-tert-butyl-4-cyclohexyl-5-(4-isoxazol-3-ylphenyl)-4,5-dihydro-1H-pyrrolo[3,4-c]pyrazol-6-one] | 6.04 | 251 to 252
COc1cccc(C2c3c(C)n[nH]c3C(=O)N2c2ccc(Br)cc2)c1 (stereo not drawn) [Example I-122] | 4.71 | 
CCOC(=O)c1ccc(N2C(=O)C(O)=C(C(=O)C(C)(C)C)C2c2ccccc2)cc1 (stereo not drawn) [Example I-28] | 6.59 | 
COc1ccc(C(=O)C2=C(O)C(=O)N(c3ccc(C(=O)N(C)C)cc3)C2c2ccccc2)cc1 (stereo not drawn) [Example I-74] | 5.23 | 

Results, then the molecule that gave them:

pIC50 (human P2X3 receptor) | melting point [°C] | Compound
6.43 |  | O=C(C1=C(O)C(=O)N(c2ccc(-c3ccon3)cc2)C1C1CCCCC1)c1cccnc1 (stereo not drawn) [II-75]
5.86 |  | COc1ccccc1C1c2c(-c3ccc(F)cc3)n[nH]c2C(=O)N1c1ccc(F)cc1 (stereo not drawn) [II-5]
5.79 |  | CC(=O)Nc1ccc(-c2n[nH]c3c2C(C2CCCCC2)N(c2ccc(-c4ccon4)cc2)C3=O)cc1 (stereo not drawn) [II-202]
6.48 |  | COc1ccc(C(=O)C2=C(O)C(=O)N(c3nc4ccc(Cl)cc4s3)C2C2CCCCC2)cc1 (stereo not drawn) [II-181]
6.23 |  | COc1ccccc1C1C(C(=O)C(C)(C)C)=C(O)C(=O)N1c1ccc(C2=NCCS2)cc1 (stereo not drawn) [II-29]
5.77 |  | C#Cc1ccc(N2C(=O)C(O)=C(C(=O)c3ccc(OC)cc3)C2c2ccc(F)cc2)cc1 (stereo not drawn) [II-57]
6.89 |  | Nc1ccc(C(=O)C2=C(O)C(=O)N(c3ccc(-c4ccon4)cc3)C2C2CCCCC2)cc1 (stereo not drawn) [II-130]
5.64 |  | COc1ccccc1C1c2c(C(C)(C)C)n[nH]c2C(=O)N1c1ccc(-c2cc(NC(=O)OC(C)(C)C)no2)cc1 (stereo not drawn) [II-193]
5.60 |  | COc1ccccc1C1C(C(=O)CCOCc2ccccc2)=C(O)C(=O)N1c1ccc(-c2ccon2)cc1 (stereo not drawn) [II-85]
5.88 |  | C#Cc1ccc(N2C(=O)c3[nH]nc(C(C)(C)C)c3C2c2ccc(F)cc2)cc1 (stereo not drawn) [II-64]
6.02 |  | COc1ccccc1C1c2c(C(C)(C)C)n[nH]c2C(=O)N1c1ccc(-c2cc(CO)no2)cc1 (stereo not drawn) [II-171]
5.88 |  | COc1ccccc1C1c2c(CCOCc3ccccc3)n[nH]c2C(=O)N1c1ccc(-c2ccon2)cc1 (stereo not drawn) [II-87]
6.13 |  | COc1ccccc1C1C(C(=O)C(C)(C)CO)=C(O)C(=O)N1c1ccc(-c2ccon2)cc1 (stereo not drawn) [II-129]
6.07 |  | CCCCC(=O)C1=C(O)C(=O)N(c2ccc(-c3ccon3)cc2)C1c1ccccc1OC (stereo not drawn) [II-9]
6.52 |  | CCOC(=O)c1ccc(N2C(=O)C(O)=C(C(=NOC)c3ccc(OC)cc3)C2c2ccccc2)cc1 (stereo not drawn) [II-17]
5.82 |  | CCOC(=O)c1ccc(N2C(=O)C(=NOC)C(C(=O)c3ccc(OC)cc3)C2c2ccccc2)cc1 (stereo not drawn) [II-16]
7.15 |  | O=C(C1=C(O)C(=O)N(c2ccc(-c3ccon3)cc2)C1C1CCCCC1)c1ccc([N+](=O)[O-])cc1 (stereo not drawn) [II-98]
7.49 |  | CCC(CC)C1C(C(=O)c2ccc(C(=O)NCCO)cc2)=C(O)C(=O)N1c1ccc(-c2noc(C)n2)cc1 (stereo not drawn) [II-183]
5.70 |  | COc1ccccc1C1c2c(C(C)(C)C)n[nH]c2C(=O)N1c1ccc(-c2cc(C(=O)N(C)C)no2)cc1 (stereo not drawn) [II-172]
5.68 |  | COc1ccccc1C1C(C(=O)C(C)=O)=C(O)C(=O)N1c1ccc(-c2ccon2)cc1 (stereo not drawn) [II-123]
5.64 |  | COc1ccc(/C(N)=C2/C(=O)C(=O)N(c3ccc(C(F)(F)F)cc3)C2c2ccccc2)cc1 (stereo not drawn) [II-22]
5.97 |  | COc1ccccc1C1C(C(=O)C2CC2)=C(O)C(=O)N1c1ccc(-c2ccon2)cc1 (stereo not drawn) [II-45]
6.15 |  | COc1ccc(C(=O)C2=C(O)C(=O)N(c3nc(-c4ccncc4)cs3)C2C2CCCCC2)cc1 (stereo not drawn) [II-95]
6.24 |  | CO/N=C/c1ccc(N2C(=O)c3[nH]nc(-c4ccc(OC)cc4)c3C2c2ccccc2OC)cc1 (stereo not drawn) [II-13]
5.68 |  | COc1ccc(-c2n[nH]c3c2C(c2ccccc2)N(c2ccc(C(=O)N(C)C)cc2)C3=O)cc1 (stereo not drawn) [II-106]
8.00 |  | CC(=O)Nc1ccc(C(=O)C2=C(O)C(=O)N(c3ccc(-c4ccon4)cc3)C2C2CCCCC2)cc1 (stereo not drawn) [II-201]
5.73 |  | COc1ccc(-c2n[nH]c3c2C(C2CC2)N(c2ccc(-c4ccon4)cc2)C3=O)cc1 (stereo not drawn) [II-217]
